Converted amounts (≈) assume the structure as drawn. The source made the active and inactive calls. No cut-off for these calls is given here.
How the values were obtained:
Bacillus anthracis [1] = experiment: microbe, parasite or virus in culture; type: functional
Bacillus anthracis [2] = experiment: microbe, parasite or virus in culture; type: functional; remark: listed apart in the source
Bacillus anthracis [3] = experiment: microbe, parasite or virus in culture; type: functional; remark: listed apart in the source
Bacillus anthracis [4] = experiment: microbe, parasite or virus in culture; type: functional; remark: listed apart in the source
Bacillus anthracis [5] = experiment: microbe, parasite or virus in culture; type: functional; remark: listed apart in the source
Bacillus anthracis [6] = experiment: microbe, parasite or virus in culture; type: functional; remark: listed apart in the source
Bacillus anthracis [7] = experiment: microbe, parasite or virus in culture; type: functional; remark: listed apart in the source
Bacillus anthracis [8] = experiment: microbe, parasite or virus in culture; type: functional; remark: listed apart in the source
Bacillus anthracis [9] = experiment: microbe, parasite or virus in culture; type: functional; remark: listed apart in the source
Bacillus anthracis [10] = experiment: microbe, parasite or virus in culture; type: functional; remark: listed apart in the source
Bacillus anthracis [11] = conditions: Ames, 30 mg/kg
Bacillus anthracis [12] = experiment: microbe, parasite or virus in culture; type: functional; remark: listed apart in the source
Bacillus anthracis [13] = experiment: microbe, parasite or virus in culture; type: functional; remark: listed apart in the source
Bacillus anthracis [14] = experiment: microbe, parasite or virus in culture; type: functional; remark: listed apart in the source
Bacillus anthracis [15] = experiment: animal or person; conditions: Ames, in Mus musculus, ip
Bacillus anthracis [16] = experiment: microbe, parasite or virus in culture; type: functional; remark: listed apart in the source
Bacillus anthracis [17] = experiment: microbe, parasite or virus in culture; type: functional; remark: listed apart in the source
Bacillus anthracis [18] = experiment: microbe, parasite or virus in culture; type: functional; remark: listed apart in the source
Bacillus anthracis [19] = experiment: microbe, parasite or virus in culture; type: functional; remark: listed apart in the source
Bacillus anthracis [20] = experiment: microbe, parasite or virus in culture; type: functional; remark: listed apart in the source
Bacillus anthracis [21] = experiment: Antibacterial activity against beta-lactamase Bla1 and Bla2-producing Bacillus anthracis Sterne by broth microdilution method; type: functional
Bacillus anthracis [22] = experiment: microbe, parasite or virus in culture; type: functional; remark: listed apart in the source
Bacillus anthracis [23] = experiment: microbe, parasite or virus in culture; type: functional; remark: listed apart in the source
Bacillus anthracis [24] = experiment: microbe, parasite or virus in culture; type: functional; remark: listed apart in the source
Bacillus anthracis [25] = experiment: microbe, parasite or virus in culture; type: functional; remark: listed apart in the source
Bacillus anthracis [26] = experiment: microbe, parasite or virus in culture; type: functional; remark: listed apart in the source
Bacillus anthracis [27] = experiment: microbe, parasite or virus in culture; type: functional; remark: listed apart in the source
Bacillus anthracis [28] = experiment: microbe, parasite or virus in culture; type: functional; remark: listed apart in the source
Bacillus anthracis [29] = experiment: microbe, parasite or virus in culture; type: functional; remark: listed apart in the source
Bacillus anthracis [30] = experiment: microbe, parasite or virus in culture; type: functional; remark: listed apart in the source
Bacillus anthracis [31] = experiment: microbe, parasite or virus in culture; type: functional; remark: listed apart in the source

| SMILES | MIC (Bacillus anthracis [1]) | MIC (Bacillus anthracis [2]) | MIC (Bacillus anthracis [3]) | MIC (Bacillus anthracis [4]) | MIC (Bacillus anthracis [5]) | MIC (Bacillus anthracis [6]) | MIC (Bacillus anthracis [7]) | MIC (Bacillus anthracis [8]) | MIC (Bacillus anthracis [9]) | MIC (Bacillus anthracis [10]) | MIC (Bacillus anthracis [12]) | MIC (Bacillus anthracis [13]) | MIC (Bacillus anthracis [14]) | MIC (Bacillus anthracis [16]) | MIC (Bacillus anthracis [17]) | MIC (Bacillus anthracis [18]) | MIC (Bacillus anthracis [19]) | MIC (Bacillus anthracis [20]) | MIC (Bacillus anthracis [21]) | MIC (Bacillus anthracis [22]) | other results |
| --- | --- | --- | --- | --- | --- | --- | --- | --- | --- | --- | --- | --- | --- | --- | --- | --- | --- | --- | --- | --- | --- |
| O=C(O)c1cn(C2CC2)c2cc(N3CCNCC3)c(F)cc2c1=O [CIPROFLOXACIN] | ≤ 0.06 µg/mL | ≤ 0.06 µg/mL | ≤ 0.06 µg/mL | 0.25 µg/mL (≈ 0.754 µM) | 0.12 µg/mL (≈ 0.362 µM) | 0.12 µg/mL (≈ 0.362 µM) | ≤ 0.06 µg/mL | ≤ 0.06 µg/mL | ≤ 0.06 µg/mL | 0.25 µg/mL (≈ 0.754 µM) | 0.12 µg/mL (≈ 0.362 µM) | ≤ 0.06 µg/mL | 0.12 µg/mL (≈ 0.362 µM) | ≤ 0.06 µg/mL | 0.25 µg/mL (≈ 0.754 µM) | ≤ 0.06 µg/mL | ≤ 0.06 µg/mL | 0.12 µg/mL (≈ 0.362 µM) | ≤ 0.06 µg/mL | 0.12 µg/mL (≈ 0.362 µM) | inhibition (Bacillus anthracis [11]): Active; survival at 60 mg/kg (Bacillus anthracis [15]): 90%; MIC (Bacillus anthracis [23]): ≤ 0.06 µg/mL; MIC (Bacillus anthracis [24]): 1 µg/mL (≈ 3.02 µM); MIC (Bacillus anthracis [25]): ≤ 0.06 µg/mL; MIC (Bacillus anthracis [26]): ≤ 0.06 µg/mL; MIC (Bacillus anthracis [27]): 0.12 µg/mL (≈ 0.362 µM); MIC (Bacillus anthracis [28]): 0.12 µg/mL (≈ 0.362 µM); MIC (Bacillus anthracis [29]): ≤ 0.06 µg/mL; MIC (Bacillus anthracis [30]): 0.12 µg/mL (≈ 0.362 µM) |
| CN(C)[C@@H]1C(O)=C(C(N)=O)C(=O)[C@@]2(O)C(O)=C3C(=O)c4c(O)cccc4[C@@](C)(O)[C@H]3C[C@@H]12 [TETRACYCLINE] | ≤ 0.06 µg/mL | ≤ 0.06 µg/mL | ≤ 0.06 µg/mL | ≤ 0.06 µg/mL | ≤ 0.06 µg/mL | ≤ 0.06 µg/mL | ≤ 0.06 µg/mL | ≤ 0.06 µg/mL | ≤ 0.06 µg/mL | ≤ 0.06 µg/mL | ≤ 0.06 µg/mL | ≤ 0.06 µg/mL | ≤ 0.06 µg/mL | ≤ 0.06 µg/mL | ≤ 0.06 µg/mL | ≤ 0.06 µg/mL | ≤ 0.06 µg/mL | ≤ 0.06 µg/mL | ≤ 0.06 µg/mL | ≤ 0.06 µg/mL | MIC (Bacillus anthracis [31]): ≤ 0.06 µg/mL; MIC (Bacillus anthracis [23]): ≤ 0.06 µg/mL; MIC (Bacillus anthracis [24]): ≤ 0.06 µg/mL; MIC (Bacillus anthracis [25]): ≤ 0.06 µg/mL; MIC (Bacillus anthracis [26]): ≤ 0.06 µg/mL; MIC (Bacillus anthracis [27]): ≤ 0.06 µg/mL; MIC (Bacillus anthracis [28]): ≤ 0.06 µg/mL; MIC (Bacillus anthracis [29]): ≤ 0.06 µg/mL; MIC (Bacillus anthracis [30]): ≤ 0.06 µg/mL |

From ChEMBL document CHEMBL1255419, “Pharmacokinetic-pharmacodynamic assessment of faropenem in a lethal murine Bacillus anthracis inhalation postexposure prophylaxis model” (Antimicrob Agents Chemother, 2010)
